In patent US8338143B2, “Enhanced production of paclitaxel and taxanes by cell cultures of Taxus species” (Phyton Holdings, LLC, priority 1996, dated 2012):
Read-outs that look alike come from different tables or passages of the source.

How the values were obtained:
[1] = tested on: Taxus chinensis cell line KS1A; assay: Enhancement of taxane biosynthesis by silver compounds; assay type: cell-based
Description: Analytical high performance liquid chromatography (HPLC) was performed on a high-carbon loaded diphenyl column (Supelco, 5 μM, 4.6 mm×25 cm) with an LDC Analytical binary gradient high pressure mixing system consisting of CM3500/CM3200 pumps, a CM4100 variable volume autosampler and an SM5000 photo diode array detector interfaced to a personal computer. Column temperature was regulated ay 35° C. with an Eldex CH150 column oven. Quantitative HPLC analysis of taxanes was accomplished using a binary gradient elution scheme as follows: […]
Seven-day old cells of Taxus chinensis suspension KS1A cultivated in Medium L (Table 2) were suction filtered aseptically using a sterile Buchner funnel fitted with a MIRACLOTH (Calbiochem) filter. Approximately 0.75 to 1 gram fresh weight cells were inoculated into 4 to 5 mL of culture medium of the given composition indicated in Table 10, to yield a fresh weight cell density in the range of 15% to 20% (w/v). The vessels were incubated at 25±1° C. at 120 RPM on a gyratory shaker (1″ throw) in the dark. Evaporation was corrected for by addition of sterile distilled water. Samples of whole broth (i.e., both extracellular and intracellular taxanes) were taken at periodic intervals, and were processed and analyzed by HPLC according to the methods outlined in Example 5.

Taxus spp. cell cultures [2] = assay: Elicitation of Taxus cell cultures by biotic and abiotic elicitors; conditions: comparison among elicitors tested
Taxus spp. cell cultures [3] = tested on: Taxus spp. cell cultures
Taxus chinensis SS122-42 = assay: Enhancement of taxane biosynthesis by MDNA; assay type: cell-based; conditions: 50 μM MDNA, 14 days, whole broth
Description: Seven-day old cells of Taxus chinensis suspension culture SS122-42 cultivated in Medium M (Table 2) were suction filtered aseptically using a sterile Buchner funnel fitted with a […] (Calbiochem) filter. […] The vessels were incubated at 24±1° C. at 180 RPM on a gyratory shaker (1'' throw) in the dark. Treated cultures were sampled and analyzed using the methods described in Example 5 at various time points. Evaporation was corrected for by adding sterile distilled water at periodic intervals.

[4] = tested on: Taxus chinensis cell culture SS122-42
[5] = tested on: Taxus chinensis cell culture SS122-13
[6] = tested on: Taxus chinensis cell culture SS6A-1224
[7] = tested on: Taxus chinensis cell culture SS122-42; assay: Enhancement of taxane biosynthesis by jasmonic acid and its methyl ester; assay type: cell-based; conditions: 200 μM JMA or 89 μM MJS; Medium N + 10 μM NAA, 14 days, whole broth
Description: Seven-day old cells of Taxus chinensis suspensions cultivated in Medium M (Table 2) were suction filtered aseptically using a sterile Buchner funnel fitted with a MIRACLOTH (Calbiochem) filter. Cells were inoculated into culture medium of the given composition indicated in Table 12, at a fresh weight cell density in the range of 15% to 20% (w/v). The cultures were incubated at 24±1° C. at 120 or 180 RPM (depending on the vessel size) on a gyratory shaker (1″ throw) in the dark. Evaporation was corrected for by adding sterile distilled water. Samples of whole broth (i.e., both extracellular and intracellular taxanes) were taken at periodic intervals, and were processed and analyzed by HPLC according to the methods outlined in Example 5.

[8] = tested on: Taxus chinensis cell culture SS122-13; assay: as above; assay type: cell-based; conditions: 89 μM MJS; Medium N + 10 μM NAA, 14 days, whole broth
Description: Seven-day old cells of Taxus chinensis suspensions cultivated in Medium M (Table 2) were suction filtered aseptically using a sterile Buchner funnel fitted with a […] (Calbiochem) filter. […] The cultures were incubated at 24±1° C. at 120 or 180 RPM (depending on the vessel size) on a gyratory shaker (1'' throw) in the dark. Evaporation was corrected for by adding sterile distilled water.

[9] = culture medium I (Medium N + 10 μM NAA)
[10] = culture medium II (medium I + 50 μM silver thiosulfate)

O=C([O-])c1ccccc1.[Ag+] [Silver benzoate]
Baccatin III [1]: 40 mg/L extracellular product | Taxol (paclitaxel) [1]: 7 mg/L extracellular product | Total Taxanes [1]: 47 mg/L extracellular product

Silver oxide
Baccatin III [1]: 43 mg/L extracellular product | Taxol (paclitaxel) [1]: 18 mg/L extracellular product | Total Taxanes [1]: 61 mg/L extracellular product

O=C(O)c1ccccc1 [benzoic acid]
production increase by elicitation (taxane accumulation and secretion) (Taxus spp. cell cultures [2]): highest production increase

Chitosan
toxicity to cells / effect on cell viability (Taxus spp. cell cultures [3]): toxic and causes permanent cell damage

COc1cc(/C=C/C(=O)O)ccc1O [ferulic acid]
production increase by elicitation (taxane accumulation and secretion) (Taxus spp. cell cultures [2]): highest production increase

O=S(=O)([O-])[O-].[Ag+].[Ag+] [Silver sulfate]
Baccatin III [1]: 61 mg/L extracellular product | Taxol (paclitaxel) [1]: 7 mg/L extracellular product | Total Taxanes [1]: 68 mg/L extracellular product

O=C(O)C=Cc1cc2c(cc1[N+](=O)[O-])OCO2 [MDNA, 3,4-methylenedioxy-6-nitrocinnamic acid]
Baccatin III (Taxus chinensis SS122-42; [9]): 5 mg/L | Other Taxanes (Taxus chinensis SS122-42; [9]): 45 mg/L | Taxol (paclitaxel) (Taxus chinensis SS122-42; [9]): 163 mg/L | Total Taxanes (Taxus chinensis SS122-42; [9]): 213 mg/L | Baccatin III (Taxus chinensis SS122-42; [10]): 34 mg/L | Other Taxanes (Taxus chinensis SS122-42; [10]): 89 mg/L | Taxol (paclitaxel) (Taxus chinensis SS122-42; [10]): 311 mg/L | Total Taxanes (Taxus chinensis SS122-42; [10]): 434 mg/L

Toluenesulfonic acid silver salt
Baccatin III [1]: 39 mg/L extracellular product | Taxol (paclitaxel) [1]: 6 mg/L extracellular product | Total Taxanes [1]: 45 mg/L extracellular product

Silver thiosulfate
Baccatin III [4]: 4 mg/L | Other Taxanes [4]: 38 mg/L | Taxol (paclitaxel) [4]: 146 mg/L | Total Taxanes [4]: 188 mg/L | Baccatin III [5]: 12 mg/L | Other Taxanes [5]: 60 mg/L | Taxol (paclitaxel) [5]: 103 mg/L | Total Taxanes [5]: 173 mg/L | Baccatin III [6]: 172 mg/L | Other Taxanes [6]: 126 mg/L | Taxol (paclitaxel) [6]: 86 mg/L | Total Taxanes [6]: 384 mg/L | Baccatin III [1]: 71 mg/L extracellular product | Taxol (paclitaxel) [1]: 15 mg/L extracellular product | Total Taxanes [1]: 86 mg/L extracellular product

CC/C=C\C[C@H]1C(=O)CC[C@@H]1CC(=O)O [JMA, Jasmonic acid]
Baccatin III [7]: 4 mg/L | Other Taxanes [7]: 87 mg/L | Taxol (paclitaxel) [7]: 120 mg/L | Total Taxanes [7]: 211 mg/L

CC/C=C\CC1C(=O)CCC1CC(=O)OC (centres unmarked) [MJS, methyl jasmonate]
Baccatin III [7]: 3 mg/L | Other Taxanes [7]: 109 mg/L | Taxol (paclitaxel) [7]: 121 mg/L | Total Taxanes [7]: 233 mg/L | Baccatin III [8]: 9 mg/L | Other Taxanes [8]: 63 mg/L | Taxol (paclitaxel) [8]: 73 mg/L | Total Taxanes [8]: 124 mg/L
